A short description of this data set: Measurement of 1-octanol/water partition coefficient (LogPOW) by HPLC, OECD Test Guideline 117. It is filed as physicochemical. The settings on record: for LogPOW: 1-octanol/water partition coefficient calculated from HPLC elution time, OECD Test Guideline 117, ODS column, acetonitrile/0.6 mass % HClO4 aq. 1/1, 40° C.; for bioaccumulation potential (indicated by LogPOW value as compared to APFO): judged from LogPOW compared to APFO. The method, then:
In accordance with OECD Test Guideline 117, 1-octanol/water partition coefficient (LogPOW) of a fluorinated emulsifier was measured by using HPLC (high performance liquid chromatography).
Conditions for the measurement were as follows: column: TOSOH ODS-120T column (φ 4.6 mm×250 mm), eluent: acetonitrile/0.6 mass % of HClO4 aqueous solution=1/1 (vol/vol %), flow rate: […], sample amount: 300 μL, column temperature: 40° C., and detection light: UV 210 nm (WO2005-42593).
HPLC was carried out on standard substances (heptanoic acid, octanoic acid, nonanoic acid and decanoic acid) having known 1-octanol/water partition coefficients, and a calibration curve was prepared from the respective elution times and octanol/water partition coefficients of the respective standard substances. Based on this calibration curve, a value of partition coefficient (LogPOW) between 1-octanol and water was calculated from the elution time by HPLC of the fluorinated emulsifier.
Further, in general, in order to judge whether or not a chemical substance is apt to be accumulated in a living organism, a testing method for measurement of a partition coefficient (LogPOW) between 1-octanol and water, is stipulated. As the testing method, in addition to “Partition Coefficient (1-octanol/water) Shake Flask Method” as stipulated in OECD test guideline 107 and in Japanese Industrial Standards Z 7260-107 (2000), a HPLC method (high-performance liquid chromatography) as stipulated and published in OECD Test Guideline 117, is used. A compound having a large partition coefficient value has a large tendency for bioaccumulation, and a compound having a small value means a small tendency for bioaccumulation. In a case where the LogPOW value is less than 3.5, it is considered proper to judge that it is not a high-concentration, and bioaccumulation is also considered to be small.

Turning to `N.O=C(O)C(F)(F)OC(F)(F)C(F)(F)OC(F)(F)C(F)(F)F` [CF3CF2OCF2CF2OCF2COONH4], the LogPOW is 3.13 and the “bioaccumulation potential (indicated by LogPOW value as compared to APFO)” value is given as “low”.

For the molecule `N.O=C(O)C(F)(OC(F)(F)C(F)(OC(F)(F)C(F)(F)F)C(F)(F)F)C(F)(F)F` (centres unmarked) [CF3CF2OCF(CF3)CF2OCF(CF3)COONH4], the LogPOW is 4.03 and the “bioaccumulation potential (indicated by LogPOW value as compared to APFO)” value is given as “high”.

As to `N.O=C(O)C(F)(F)C(F)(F)C(F)(F)C(F)(F)C(F)(F)C(F)(F)C(F)(F)F` [CF3(CF2)6COONH4, ammonium perfluorooctanoate], the LogPOW is given as 3.67.

(Values after patent publication US7855259B2, “Method for producing melt-processable fluororesin” (Asahi Glass Company, Limited, priority 2005, dated 2010).)
